Where two headings read alike, the source gives them in different places.
Key:
MV4-11 = assay: MTS cell proliferation assay, MV4-11; assay type: cell-based, human; details: Homo sapiens; MV4-11, 72 hr; read-out: MTS proliferation assay
Description: Cell proliferation was measured using the CellTiter 96 Aqueous Non-Radioactive Cell Proliferation Assay (Promega). […] MTS is bioreduced by cells into a formazan product that is soluble in tissue culture medium. The absorbance of the formazan product at 490 nm can be measured directly from assay plates without additional processing. The quantity of formazan product as measured by the amount of 490 nm absorbance is directly proportional to the number of living cells in culture. Cells were seeded into 96-well or 384-well clear plates in a volume of 200 μL (96-well) or 50 μL (384-well) at optimized densities ranging from 1,000 to 40,000 cells per well for 96-well plates or 1,200 to 25,000 cells per well for 384-well plates depending on cell-line. After 4-6 hr recovery, serially diluted compounds in DMSO were added to the cells using (0.1% v/v final DMSO concentration). Cells were then grown at 37° C. in a humidified incubator with 5% CO2 for 72 hr. A 20:1 [3-(4,5-dimethylthiazol-2-yl)-5-(3-carboxymethoxyphenyl)-2-(4-sulfophenyl)-2H-tetrazolium](MTS):phenazine methosulfate (PMS) solution in DPBS was made immediately before use, added to each well, and cells were incubated for 1.5 hr at 37° C. The absorbance at 490 nm was then measured using a platereader. Absorbance values were normalized as percent of control (cells incubated in the presence of 0.1% v/v DMSO). Sigmoidal dose-response curves were plotted using log(inhibitor) vs. response—Variable slope (four parameters) model with a top value constrained to 100% (GraphPad Prism version 6.00 for Windows, GraphPad Software, La Jolla California USA). […] To determine potential of compounds of the invention to affect viability of hematological cancers, cell lines representing various tumor types were selected and tested. […] In addition, two murine cell lines were tested: A20 […].

CMK = assay: MTS cell proliferation assay, CMK; assay type: cell-based; details: Homo sapiens, 72 hr
Description: (§1) Cell proliferation was measured using the CellTiter 96 Aqueous Non-Radioactive Cell Proliferation Assay (Promega). The CellTiter 96® AQueous Assay is composed of solutions of a tetrazolium compound [3-(4,5-dimethylthiazol-2-yl)-5-(3-carboxymethoxyphenyl)-2-(4-sulfophenyl)-2H-tetrazolium, inner salt; MTS] and an electron coupling reagent (phenazine methosulfate) PMS. MTS is bioreduced by cells into a formazan product that is soluble in tissue culture medium. The absorbance of the formazan product at 490 nm can be measured directly from assay plates without additional processing. The quantity of formazan product as measured by the amount of 490 nm absorbance is directly proportional to the number of living cells in culture. Cells were seeded into 96-well or 384-well clear plates in a volume of 200 μL (96-well) or 50 μL (384-well) at optimized densities ranging from 1,000 to 40,000 cells per well for 96-well plates or 1,200 to 25,000 cells per well for 384-well plates depending on cell-line. After 4-6 hr recovery, serially diluted compounds in DMSO were added to the cells using (0.1% v/v final DMSO concentration). Cells were then grown at 37° C. in a humidified incubator with 5% CO2 for 72 hr. A 20:1 [3-(4,5-dimethylthiazol-2-yl)-5-(3-carboxymethoxyphenyl)-2-(4-sulfophenyl)-2H-tetrazolium](MTS):phenazine methosulfate (PMS) solution in DPBS was made immediately before use, added to each well, and cells were incubated for 1.5 hr at 37° C. The absorbance at 490 nm was then measured using a platereader. Absorbance values were normalized as percent of control (cells incubated in the presence of 0.1% v/v DMSO). Sigmoidal dose-response curves were plotted using log(inhibitor) vs. response—Variable slope (four parameters) model with a top value constrained to 100% (GraphPad Prism version 6.00 for Windows, GraphPad Software, La Jolla California USA). […] Curves for compounds that reached a plateau were matched exactly to the measurement points. […]

Jeko = assay: MTS cell proliferation assay, Jeko; assay type: cell-based; details: Homo sapiens, 72 hr
Description: (§2) Cell proliferation was measured using the CellTiter 96 Aqueous Non-Radioactive Cell Proliferation Assay (Promega). The CellTiter 96® AQueous Assay is composed of solutions of a tetrazolium compound [3-(4,5-dimethylthiazol-2-yl)-5-(3-carboxymethoxyphenyl)-2-(4-sulfophenyl)-2H-tetrazolium, inner salt; MTS] and an electron coupling reagent (phenazine methosulfate) PMS. MTS is bioreduced by cells into a formazan product that is soluble in tissue culture medium. The absorbance of the formazan product at 490 nm can be measured directly from assay plates without additional processing. The quantity of formazan product as measured by the amount of 490 nm absorbance is directly proportional to the number of living cells in culture. Cells were seeded into 96-well or 384-well clear plates in a volume of 200 μL (96-well) or 50 μL (384-well) at optimized densities ranging from 1,000 to 40,000 cells per well for 96-well plates or 1,200 to 25,000 cells per well for 384-well plates depending on cell-line. After 4-6 hr recovery, serially diluted compounds in DMSO were added to the cells using (0.1% v/v final DMSO concentration). Cells were then grown at 37° C. in a humidified incubator with 5% CO2 for 72 hr. A 20:1 [3-(4,5-dimethylthiazol-2-yl)-5-(3-carboxymethoxyphenyl)-2-(4-sulfophenyl)-2H-tetrazolium](MTS):phenazine methosulfate (PMS) solution in DPBS was made immediately before use, added to each well, and cells were incubated for 1.5 hr at 37° C. The absorbance at 490 nm was then measured using a platereader. Absorbance values were normalized as percent of control (cells incubated in the presence of 0.1% v/v DMSO). Sigmoidal dose-response curves were plotted using log(inhibitor) vs. response—Variable slope (four parameters) model with a top value constrained to 100% (GraphPad Prism version 6.00 for Windows, GraphPad Software, La Jolla California USA). […] Curves for compounds that reached a plateau were matched exactly to the measurement points. […] To determine potential of compounds of the invention to affect viability of hematological cancers, cell lines representing various tumor types were selected and tested. Human cell lines tested were: MOLM-13 (acute myeloid leukemia (AML)), MV4-11 (AML), U-2932 (ABC-diffuse large B cell lymphoma), U-937 (histiocytic lymphoma), U-266 (multiple myeloma), RPMI-8226 (multiple myeloma), CMK (megakaryoblastic cell line), SU-DHL-4 (GCB-diffuse large B cell lymphoma), KG1 (AML), Mec-1 (chronic B-cell leukemia), MOLM-16 (AML), Jeko (B-cell lymphoma), WSU-DLCL2 (B-cell lymphoma), JJN3 (plasma cell leukemia), SU-DHL-6 (GCB-diffuse large B cell lymphoma), and Z-138 (mantle cell lymphoma). In addition, two murine cell lines were tested: A20 […].

WSU-DLCL2 = assay: MTS cell proliferation assay, WSU-DLCL2; assay type: cell-based; details: Homo sapiens, WSUDLCL2; WSU-DLCL2, 72 hr
Description: as §1

JJN3 = assay: MTS cell proliferation assay, JJN3; assay type: cell-based; details: Homo sapiens, JJN-3; JJN3, 72 hr
Description: as §1

[1] = test system: hematologic tumor cell lines; assay: MTS cell proliferation assay, panel of hematologic cancer cell lines; assay type: cell-based
Description: as §2

[2] = Oral pharmacokinetics in mice; assay type: in vivo; details: for Tmax / bioavailability: mouse, in vivo, oral; for bioavailability: read-out: oral bioavailability % F
[3] = range against the various cell lines of Table 1, read-out: inhibition of cell proliferation EC50

C[C@H](NC(=O)c1nc(C#N)cnc1NCc1ccc(-c2cnc3[nH]nc(N)c3n2)cc1)c1ccc(F)c(F)c1 [Compound 1, 3-[4-(3-Amino-1H-pyrazolo[3,4-b]pyrazin-5-yl)-benzylamino]-6-cyano-pyrazine-2-carboxylic acid [1-(3,4-difluoro-phenyl)-ethyl]-amide]
EC50 (MV4-11): 0.005 µM | EC50 (CMK): 0.222 µM | EC50 (Jeko): 0.286 µM | EC50 (WSU-DLCL2): 0.543 µM | EC50 (JJN3): 0.846 µM | EC50 [1, 3]: 0.003 to 0.853 µM | half-life [2]: long half-life | Tmax [2]: 4 to 8 h | bioavailability [2]: > 40%

CNc1n[nH]c2ncc(-c3ccc(CNc4ncc(C#N)nc4C(=O)N[C@@H](C)c4ccc(F)c(F)c4)cc3)cc12 [Compound 2, 6-Cyano-3-[4-(3-methylamino-1H-pyrazolo[3,4-b]pyridin-5-yl)-benzylamino]-pyrazine-2-carboxylic acid [1-(3,4-difluoro-phenyl)-ethyl]-amide]
EC50 (MV4-11): 0.007 µM | EC50 (CMK): 0.182 µM | EC50 (Jeko): 0.279 µM | EC50 (WSU-DLCL2): 0.354 µM | EC50 (JJN3): 0.453 µM | fold more potent than GSK2334470 in viability assays ([1]; 72 hours viability assays): at least 10 fold | number of cell lines with growth inhibition at concentrations less than 500 nM ([1]; out of 16 cell lines): 15 | EC50 ([1]; panel of more than 20 cell lines derived from hematologic cancers, read-out: anti-proliferative activity EC50): 0.003 to 0.9 µM | EC50 [1, 3]: 0.003 to 0.853 µM | EC50 ([1]; range over 16 cell lines, FIG. 3, read-out: potency in the cell proliferation assay (EC50)): < 1 µM | half-life [2]: long half-life | Tmax [2]: 4 to 8 h | bioavailability [2]: > 40%
